# Measurements published in patent US9770446B2, “Piperidine urea derivatives” (MERCK PATENT GMBH, priority 2013, dated 2017).
# pIC50: −log10 of the molar value.
# Tests used:
# [1] = target: T1, GST-tagged Tankyrase-1 (1023-1327 aa) (Homo sapiens, UniProt O95271); assay: Tankyrase 1 autoparsylation HTRF enzyme assay; assay type: biochemical; conditions: read-out: IC50 TNKS1 enzyme assay
# T1 construct: GST-tagged Tankyrase-1 (1023-1327 aa)
# Protocol: (§1) Biochemical activity testing of Tankyrase 1 and 2: Autoparsylation assay
# (§2) The autoparsylation assay is run in two steps: the enzymatic reaction in which GST-tagged Tankyrase-1, resp Tankyrase-2 transferred biotinylated ADP-ribose to itself from biotinylated NAD as co-substrate and the detection reaction where a time resolved FRET between cryptate labelled anti-GST bound to the GST tag of the enzyme and Xlent® labelled-streptavidin bound the biotin-parsylation residue is analysed. The autoparsylation activity was detectable directly via the increase in HTRF signal.
# (§3) The autoparsylation assay is performed as 384-well HTRF® (Cisbio, Codolet, France) assay format in Greiner low volume nb 384-well microtiter plates and is used for high throughput screen. 250 nM GST-tagged Tankyrase-1 (1023-1327 aa), respectively about 250 nM GST-tagged Tankyrase-2 (873-1166 aa) and 5 μM bio-NAD (Biolog, Life science Inst., Bremen, Germany) as co-substrate are incubated in a total volume of 5 μl (50 mM HEPES, 4 mM Mg-chloride, 0.05% Pluronic F-68, 1.4 mM DTT, 0.5% DMSO, pH 7.7) in the absence or presence of the test compound (10 dilution concentrations) for 90 min at 30° C. The reaction is stopped by the addition of 1 μl 50 mM EDTA solution. 2 μl of the detection solution (1.6 μM SA-Xlent® (Cisbio, Codolet, France), 7.4 nM Anti-GST-K® (Eu-labelled anti-GST, Cisbio, Codolet, France) in 50 mM HEPES, 800 mM KF, 0.1% BSA, 20 mM EDTA, 0.1% CHAPS, pH 7.0) are added. After 1 h incubation at room temperature the HTRF is measured with an Envision multimode reader (Perkin Elmer LAS Germany GmbH) at excitation wavelength 340 nm (laser mode) and emission wavelengths 615 nm and 665 nm. The ratio of the emission signals is determined. The full value used is the inhibitor-free reaction. The pharmacological zero value used is XAV-939 (Tocris) in a final concentration of 5 μM. The inhibitory values (IC50) are determined using either the program Symyx Assay Explorer® or Condosseo® from GeneData.
# [2] = target: T2, GST-tagged Tankyrase-2 (873-1166 aa) (Homo sapiens, UniProt Q9H2K2); assay: Tankyrase 2 autoparsylation HTRF enzyme assay; assay type: biochemical; conditions: read-out: IC50 TNKS2 enzyme assay
# T2 construct: GST-tagged Tankyrase-2 (873-1166 aa)
# Protocol: as §1, §2, §3
# [3] = tested on: Tankyrase; assay: Cellular inhibition of Tankyrase: Axin2 level in DLD1 cells (Luminex); assay type: cell-based; conditions: 24 hours, Axin2 increase, read-out: EC50 [M] TNKS cellular assay
# Protocol: Measurement of Cellular Inhibition of Tankyrase
# Since Tankyrases have been described to modulate cellular level of Axin2 (Huang et al., 2009; Nature) the increase of Axin2 level is used as read-out for determination of cellular inhibition of Tankyrases in a Luminex based assay.
# Cells of the colon carcinoma cell line DLD1 are plated in 96 well plates with 1.5×10^4 cells per well. Next day, cells are treated with a serial dilution of test compound in seven steps as triplicates with a final DMSO concentration of 0.3%. After 24 hours, cells are lysed in lysis buffer (20 mM Tris/HCl pH 8.0, 150 mM NaCl, 1% NP40, 10% Glycerol) and lysates are cleared by centrifugation through a 96 well filter plate (0.65 μm). Axin2 protein is isolated from cell lysates by incubation with a monoclonal anti-Axin2 antibody (R&D Systems #MAB6078) that is bound to fluorescent carboxybeads. Then, bound Axin2 is specifically detected with a polyclonal anti-Axin2 antibody (Cell Signaling #2151) and an appropriate PE-fluorescent secondary antibody. The amount of isolated Axin2 protein is determined in a Luminex^200 machine (Luminex Corporation) according to the manufacturer's instruction by counting 100 events per well. Inhibition of Tankyrase by test compounds results in higher levels of Axin2 which directly correlates with an increase of detectable fluorescence. As controls cells are treated with solvent alone (neutral control) and with a Tankyrase reference inhibitor IWR-2 (3E-06 M) which refers as control for maximum increase of Axin2. For analysis, the obtained data are normalized against the untreated solvent control and fitted for determination of the EC50 values using the Assay Explorer software (Accelrys).
# [4] = target: T3, GST-tagged Tnks-1 (1023-1327 aa) (Homo sapiens, UniProt O95271); assay: TNKS1 activity ELISA (autoparsylation assay); assay type: biochemical
# T3 construct: GST-tagged Tnks-1 (1023-1327 aa, prepared in-house); made in house
# Protocol: (§4) Description of the TNKS1 and TNKS2 ELISA Assay
# (§5) Biochemical Activity Testing of TNKS 1 and 2: Activity ELISA (Autoparsylation Assay)
# (§6) For analysis of autoparsylation activity of TNKS 1 and 2 an activity ELISA iss performed: In the first step GST tagged TNKS is captured on a Glutathione coated plate. Then the activity assay with biotinylated NAD is performed in the absence/presence of the compounds. During the enzymatic reaction GST tagged TNKS transfers biotinylated ADP-ribose to itself from biotinylated NAD as co-substrate. For the detection streptavidin-HRP conjugate is added that binds to the biotinylated TNKS and is thereby captured to the plates. The amount of biotinylated resp. autoparsylated TNKS is detected with a luminescence substrate for HRP. The level of the luminescence signal correlates directly with the amount of autoparsylated TNKS and therefore with activity of TNKS.
# (§7) The activity ELISA is performed in 384 well Glutathione coated microtiter plates (Express capture Glutathione coated plate, Biocat, Heidelberg, Germany). The plates are pre-equilibrated with PBS. Then the plates are incubated with 50 μl 20 ng/well GST-tagged Tnks-1 (1023-1327 aa, prepared in-house), respectively GST-tagged Tnks-2 (873-1166 aa, prepared in-house) in assay buffer (50 mM HEPES, 4 mM Mg-chloride, 0.05% Pluronic F-68, 2 mM DTT, pH 7.7) overnight at 4° C. The plates are washed 3 times with PBS-Tween-20. The wells are blocked by incubation at room temperature for 20 minutes with 50 μl blocking buffer (PBS, 0.05% Tween-20, 0.5% BSA). Afterwards the plates are washed 3 times with PBS-Tween-20. The enzymatic reaction is performed in 50 μl reaction solution (50 mM HEPES, 4 mM Mg-chloride, 0.05% Pluronic F-68, 1.4 mM DTT, 0.5% DMSO, pH 7.7) with 10 μM bio-NAD (Biolog, Life science Inst., Bremen, Germany) as co-substrate in the absence or presence of the test compound (10 dilution concentrations) for 1 hour at 30° C. The reaction is stopped by 3 times washing with PBS-Tween20. For the detection 50 μl of 20 ng/μl Streptavidin, HRP conjugate (MoBiTec, Göttingen, Germany) in PBS/0.05% Tween-20/0.01% BSA are added and the plates are incubated for 30 minutes at room temperature. After three times washing with PBS-Tween-20 50 μl of SuperSignal ELISA Femto Maximum sensitivity substrate solution (ThermoFisherScientific (Pierce), Bonn, Germany) are added. Following a 1 minute incubation at room temperature luminescence signals are measured with an Envision multimode reader (Perkin Elmer LAS Germany GmbH) at 700 nm. The full value used is the inhibitor-free reaction. The pharmacological zero value used is XAV-939 (Tocris) in a final concentration of 5 μM. The inhibitory values (IC50) are determined using either the program Symyx Assay Explorer® or Condosseo® from GeneData.
# [5] = target: T4, GST-tagged Tnks-2 (873-1166 aa) (Homo sapiens, UniProt Q9H2K2); assay: TNKS2 activity ELISA (autoparsylation assay); assay type: biochemical
# T4 construct: GST-tagged Tnks-2 (873-1166 aa, prepared in-house); made in house
# Protocol: as §4, §5, §6, §7
# T4 sequence (Q9H2K2 873-1166): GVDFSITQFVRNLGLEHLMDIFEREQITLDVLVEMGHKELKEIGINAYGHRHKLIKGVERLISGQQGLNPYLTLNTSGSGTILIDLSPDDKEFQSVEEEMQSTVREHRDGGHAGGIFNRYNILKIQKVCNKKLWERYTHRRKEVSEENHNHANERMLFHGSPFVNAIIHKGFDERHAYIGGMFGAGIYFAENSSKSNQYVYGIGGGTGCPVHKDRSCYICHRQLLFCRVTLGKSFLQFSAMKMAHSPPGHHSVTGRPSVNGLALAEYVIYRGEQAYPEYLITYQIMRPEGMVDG
# T2 sequence (Q9H2K2 873-1166): as above
# T1 sequence (O95271 1023-1327): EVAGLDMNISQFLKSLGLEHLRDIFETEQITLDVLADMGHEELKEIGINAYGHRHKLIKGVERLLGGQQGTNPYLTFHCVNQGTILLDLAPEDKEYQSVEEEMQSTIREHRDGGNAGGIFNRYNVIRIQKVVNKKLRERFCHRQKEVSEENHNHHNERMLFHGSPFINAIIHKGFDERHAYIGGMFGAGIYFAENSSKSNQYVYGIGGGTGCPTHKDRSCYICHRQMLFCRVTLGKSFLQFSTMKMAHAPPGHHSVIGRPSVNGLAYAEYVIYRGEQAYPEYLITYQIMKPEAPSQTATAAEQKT
# T3 sequence (O95271 1023-1327): as above
Structure (SMILES),pIC50 [1],pIC50 [2],EC50 [3],IC50 [4],IC50 [5]
"COc1cccc(N(C)C(=O)N2CCC(C(=O)c3ccccc3)CC2)c1 [Compound A3, 4-benzoyl-piperidine-1-carboxylic acid (3-methoxy-phenyl)-methyl-amide]",5.52 to 6.52,5.52 to 6.52,3e-07 to 3e-06 M,< 300 nM,< 300 nM
"COc1ccc(N(C)C(=O)N2CCC(C(=O)c3ccc(Cl)cc3)CC2)cc1 [Compound A9, 4-(4-chloro-benzoyl)-piperidine-1-carboxylic acid (4-methoxy-phenyl)-methylamide]",> 6.52,5.52 to 6.52,3e-07 to 3e-06 M,< 300 nM,< 300 nM
"CN(C(=O)N1CCC(C(=O)c2ccccc2)CC1)c1cccc(C#N)c1 [Compound A10, 4-benzoyl-piperidine-1-carboxylic acid (3-cyano-phenyl)-methyl-amide]",5.52 to 6.52,4.30 to 5.52,3e-06 to 5e-05 M,300 to 3000 nM,< 300 nM
"CN(C(=O)N1CCC(C(=O)c2ccccc2)CC1)c1ccc(C#N)cc1 [Compound A11, 4-benzoyl-piperidine-1-carboxylic acid (4-cyano-phenyl)-methyl-amide]",5.52 to 6.52,5.52 to 6.52,3e-07 to 3e-06 M,< 300 nM,< 300 nM
"CN(C(=O)N1CCC(C(=O)c2ccccc2)CC1)c1cccc(F)c1 [Compound A12, 4-benzoyl-piperidine-1-carboxylic acid (3-fluoro-phenyl)-methyl-amide]",5.52 to 6.52,5.52 to 6.52,3e-07 to 3e-06 M,< 300 nM,< 300 nM
"O=C(c1cccc(F)c1)C1CCN(C(=O)N2CCc3ccccc32)CC1 [Compound A19, (2,3-dihydro-indol-1-yl)-[4-(3-fluoro-benzoyl)-piperidin-1-yl]-methanone]",5.52 to 6.52,5.52 to 6.52,3e-06 to 5e-05 M,< 300 nM,< 300 nM
"O=C(c1ccc(F)cc1)C1CCN(C(=O)N2CCc3ccccc32)CC1 [Compound A20, (2,3-dihydro-indol-1-yl)-[4-(4-fluoro-benzoyl)-piperidin-1-yl]-methanone]",5.52 to 6.52,5.52 to 6.52,3e-06 to 5e-05 M,< 300 nM,< 300 nM
"O=C(c1ccc(Cl)cc1)C1CCN(C(=O)N2CCc3ccccc32)CC1 [Compound A21, [4-(4-chloro-benzoyl)-piperidin-1-yl]-(2,3-dihydro-indol-1-yl)-methanone]",5.52 to 6.52,5.52 to 6.52,3e-06 to 5e-05 M,300 to 3000 nM,< 300 nM
"CN(C(=O)N1CCC(C(=O)c2ccc(-c3cnn(CCN4CCCC4)c3)cc2)CC1)c1ccc(-c2cnn(CCN3CCCC3)c2)cc1 [Compound A37, 4-{4-[1-(2-pyrrolidin-1-yl-ethyl)-1H-pyrazol-4-yl]-benzoyl}-piperidine-1-carboxylic acid methyl-{4-[1-(2-pyrrolidin-1-yl-ethyl)-1H-pyrazol-4-yl]-phenyl}-amide]",,,3e-07 to 3e-06 M,< 300 nM,< 300 nM
"CCN(C(=O)N1CCC(C(=O)c2ccc(OC)nc2)CC1)c1ccc(OC)cc1 [Compound A43, N-ethyl-N-(4-methoxyphenyl)-4-(6-methoxypyridine-3-carbonyl)piperidine-1-carboxamide]",,,< 3e-07 M,< 300 nM,< 300 nM
"COc1ccc(N(C)C(=O)N2CCC(C(=O)c3ccccc3)CC2)cn1 [Compound A44, 4-benzoyl-N-(6-methoxy-3-pyridyl)-N-methyl-piperidine-1-carboxamide]",,,3e-07 to 3e-06 M,< 300 nM,< 300 nM
"CCn1cc(-c2ccc(C(=O)C3CCN(C(=O)N(C)c4ccc(OC)nc4)CC3)cc2)cn1 [Compound A48, 4-[4-(1-ethylpyrazol-4-yl)benzoyl]-N-(6-methoxy-3-pyridyl)-N-methyl-piperidine-1-carboxamide]",,,3e-07 to 3e-06 M,< 300 nM,< 300 nM
"COc1ccc(N(C)C(=O)N2CCC(C(=O)c3ccc(OC)c(C)c3)CC2)cn1 [Compound A52, 4-(4-methoxy-3-methyl-benzoyl)-N-(6-methoxy-3-pyridyl)-N-methyl-piperidine-1-carboxamide]",,,< 3e-07 M,< 300 nM,< 300 nM
"COc1ccc(N(C)C(=O)N2CCC(C(=O)c3ccc(OC)nc3)CC2)cc1 [Compound A53, N-(4-methoxyphenyl)-4-(6-methoxypyridine-3-carbonyl)-N-methyl-piperidine-1-carboxamide]",,,3e-07 to 3e-06 M,< 300 nM,< 300 nM
"CCn1cc(-c2ccc(C(=O)C3CCN(C(=O)N(C)c4ccc(-c5cnn(CC)c5)cc4)CC3)cc2)cn1 [Compound A57, 4-[4-(1-Ethyl-1H-pyrazol-4-yl)-benzoyl]-piperidine-1-carboxylic acid [4-(1-ethyl-1H-pyrazol-4-yl)-phenyl]-methyl-amide]",,,< 3e-07 M,< 300 nM,< 300 nM
